Measured values: patent publication US9353089B2, “Compositions and methods for the treatment of malaria” (Saint Louis University, priority 2013, dated 2016)
Like-named read-outs stand apart in the source and are kept apart here.

Assays:
[1] = tested on: Plasmodium falciparum 3D7 (CQ-sensitive); experiment: In vitro antimalarial assay (malaria SYBR Green I-based fluorescence, MSF), 3D7; type: cell-based; conditions: for inhibition of growth at 1 µM: 3D7, 72 h, read-out: 3D7 % inh @ 1 μM
In short: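 Asynchronous P. falciparum 3D7 cultures (0.5% parasitemia, 2% hematocrit) were exposed to serially diluted compounds, in quadruplicate. Growth was then quantified by SYBR Green I fluorescence after adding lysis buffer containing 0.2 μL/mL dye.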

[2] = target: Plasmepsin-2 (PM-2; Plm II) (Plasmodium falciparum (isolate HB3), UniProt P46925); experiment: Plasmepsin-2 enzyme inhibition assay; type: biochemical; conditions: Table 13; read-out: PM-2 IC50
Experimental: Plasmepsin-2 (PM-2; Plm II) and Plasmepsin (PM-4; Plm IV) expression and purification was performed following the published protocols (Istvan E S and Goldberg D E, 2005). The final purified protein was activated by diluting the protein to 0.3 mg/mL in activating buffer (0.1 M citrate pH 4.5, 0.1% Tween-20, 50 mM dithiothreitol) and incubated at room temperature for 40 min, then the activated enzyme was diluted in assay buffer (50 mM sodium acetate pH 4.7, 0.01% Tween-20). The enzymatic inhibition reaction was performed in 384 well plates with a total volume of 20 μl. 10 μl of diluted PM-2 or PM-4 enzyme was added to the 384-well plate except blank wells (blank wells add 10 μL of assay buffer) and 20 nL of serials of diluted 1000× compounds were added to the wells with 520 Echo® Liquid Handling System (Labcyte Inc.). 10 μL PM-2 peptide substrate (AnaSpec, Cat#, 62050) with assay buffer was then added to final concentration of 20 μM to start the reaction. After incubation the reaction at room temperature for 60 min, the fluorescence intensity at Ex/Em=360 nm/535 nm was measured using EnVision multilabel plate reader (Perkin-Elmer). The IC50 values were obtained using Graph Pad Prism 4 and are reported in Tables 8 and 9 below as PM-2 IC50 values.

recombinant human BACE1 = recombinant human BACE1 (Homo sapiens, UniProt P56817); experiment: β-Secretase (BACE1) enzyme inhibition FRET assay; type: biochemical; conditions: Table 13; read-out: BACE1 IC50
Experimental: The enzymatic inhibition activity assays were determined using the fluorescence resonance energy transfer (FRET) assay. The assays were performed in a 384-well plate format. […] CatD and CatE were activated by incubation in assay buffer (0.1 M NaOAc, 0.2 M NaCl, pH 3.5) at room temperature for 30 min. Subsequently, the rhBACE-1 substrate (R&D Systems, catalog# ES004), the Cathepsin D and Cathepsin E substrate (R&D Systems, Catalog # ES001) were added accordingly to final concentration 20 μM to initiate the reaction. After 60 min incubation at room temperature, the time-resolved fluorescence at Ex/Em=360 nm/460 nm was measured on an EnVision multilabel plate reader (Perkin-Elmer). The analytical software, GraphPad Prism 5.0 (GraphPad Software, Inc., USA) was used to generate IC50 values via non-linear regression analysis, which are reported in Tables 8-13 below as BACE1 IC50 values.

[3] = 3D7, read-out: 3D7 IC50 (μM), Table 13
[4] = 3D7, read-out: Pf3D7 IC50 (μM), Table 10

Sequence of Plasmepsin-2 (PM-2; Plm II) (P46925 125-453 limits assumed): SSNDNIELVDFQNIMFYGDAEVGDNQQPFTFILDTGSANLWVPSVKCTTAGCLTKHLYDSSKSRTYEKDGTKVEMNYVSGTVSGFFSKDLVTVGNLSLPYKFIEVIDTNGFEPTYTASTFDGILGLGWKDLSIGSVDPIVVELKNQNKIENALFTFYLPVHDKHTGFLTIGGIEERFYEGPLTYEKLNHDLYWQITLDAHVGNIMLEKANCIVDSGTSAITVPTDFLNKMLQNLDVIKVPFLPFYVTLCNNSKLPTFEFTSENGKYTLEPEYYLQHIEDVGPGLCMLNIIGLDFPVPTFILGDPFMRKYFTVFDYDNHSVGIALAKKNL
Sequence of recombinant human BACE1 (P56817 46-501 limits assumed): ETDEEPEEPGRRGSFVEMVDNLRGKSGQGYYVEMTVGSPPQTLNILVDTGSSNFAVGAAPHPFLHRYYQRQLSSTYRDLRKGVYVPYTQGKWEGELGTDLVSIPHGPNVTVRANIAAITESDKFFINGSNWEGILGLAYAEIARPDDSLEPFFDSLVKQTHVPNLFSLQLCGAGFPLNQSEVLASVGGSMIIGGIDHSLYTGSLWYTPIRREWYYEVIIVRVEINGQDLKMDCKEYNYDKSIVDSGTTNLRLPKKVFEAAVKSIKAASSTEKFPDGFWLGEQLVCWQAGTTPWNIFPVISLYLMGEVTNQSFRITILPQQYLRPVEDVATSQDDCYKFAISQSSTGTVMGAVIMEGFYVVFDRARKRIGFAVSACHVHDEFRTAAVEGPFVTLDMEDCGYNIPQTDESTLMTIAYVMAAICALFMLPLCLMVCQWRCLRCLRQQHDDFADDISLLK

| Structure (SMILES) | IC50 [1, 3] [µM] | IC50 [2] [µM] | IC50 (recombinant human BACE1) [µM] | inhibition of growth at 1 µM [1] [%] | IC50 [1, 4] [µM] |
| --- | --- | --- | --- | --- | --- |
| N#Cc1cncc(-c2cccc(C3(C4CC4)NC(=N)N(C4CCCCC4)C3=O)c2)c1 (centres unmarked) [Example 513, 5-(3-(1-cyclohexyl-4-cyclopropyl-2-imino-5-oxoimidazolidin-4-yl)phenyl)nicotinonitrile] | 0.4 | 0.219 | 6.64 | – | – |
| COc1ccc(C2(c3ccc(OC)cc3)NC(=N)N(C3CCN(C(=O)CCN(C)C)CC3)C2=O)cc1 [Example 322, 3-{1-[3-(dimethylamino)propanoyl]piperidin-4-yl}-2-imino-5,5-bis(4-methoxyphenyl)imidazolidin-4-one] | – | 0.0202 | > 10 | 34 | – |
| COc1ccc(C2(C3CC3)NC(=N)N(C3CCOCC3)C2=O)cc1-c1cccc(C#N)c1 (centres unmarked) [Example 491, 5′-(4-cyclopropyl-2-imino-5-oxo-1-(tetrahydro-2H-pyran-4-yl)imidazolidin-4-yl)-2′-methoxy-[1,1′-biphenyl]-3-carbonitrile] | 0.47 | 0.0517 | 8.32 | – | – |
| COc1ccc(C2(c3ccncc3)NC(=N)N(C3CCOCC3)C2=O)cc1 (centres unmarked) [Example 334, 2-imino-5-(4-methoxyphenyl)-3-(oxan-4-yl)-5-(pyridin-4-yl)-imidazolidin-4-one] | – | 0.0859 | > 10 | 14 | – |
| COc1ccc(C2(c3ccc(OC)cc3)NC(=N)N(C3CC3)C2=O)cc1 [Example 158, 3-cyclopropyl-2-imino-5,5-bis(4-methoxyphenyl)-imidazolidin-4-one] | 4.11 | 0.392 | > 10 | – | 4.11 |
| N=C1NC(c2ccccc2)(c2ccccc2)C(=O)N1C1CCCCC1 [Example 100, 3-cyclohexyl-2-imino-5,5-diphenyl-imidazolidin-4-one] | 3.85 | 0.0287 | > 10 | – | 3.85 |
| N=C1NC(c2cccc(-c3cccnc3)c2)(C2CCCCC2)C(=O)N1C1CCOCC1 (centres unmarked) [Example 517, 5-cyclohexyl-2-imino-5-(3-(pyridin-3-yl)phenyl)-3-(tetrahydro-2H-pyran-4-yl)imidazolidin-4-one] | 0.35 | 0.125 | 14.7 | – | – |
| COc1ccc(C2(c3ccc(OC)cc3)NC(=N)N(Cc3ncccc3C)C2=O)cc1 [Example 302, 2-imino-5,5-bis(4-methoxyphenyl)-3-[(3-methylpyridin-2-yl)methyl]imidazolidin-4-one] | 1.07 | 0.0488 | > 10 | – | – |
| COc1ccc(C2(C3CC3)NC(=N)N(C3CCOCC3)C2=O)cc1 (centres unmarked) [Example 325, 5-cyclopropyl-2-imino-5-(4-methoxyphenyl)-3-(oxan-4-yl)imidazolidin-4-one] | 0.752 | 0.426 | > 10 | – | – |
| COc1ccc(C2(c3ccc(OC)cc3)NC(=N)N(Cc3ccccc3C#N)C2=O)cc1 [Example 305, 2-{[2-imino-4,4-bis(4-methoxyphenyl)-5-oxoimidazolidin-1-yl]methyl}benzonitrile] | – | 0.0093 | 6.7 | 81 | – |
| COc1ccc(C2(c3ccc(OC)cc3)NC(=N)N(CC34CC5CC(CC(C5)C3)C4)C2=O)cc1 [Example 276, 3-(adamantan-1-ylmethyl)-2-imino-5,5-bis(4-methoxyphenyl)-imidazolidin-4-one] | 0.336 | 0.002 | 7.85 | – | – |
| COc1ccc(C2(c3cncnc3)NC(=N)N(C3CCOCC3)C2=O)cc1 (centres unmarked) [Example 333, 2-imino-5-(4-methoxyphenyl)-3-(oxan-4-yl)-5-(pyrimidin-5-yl)imidazolidin-4-one] | – | 0.639 | > 10 | 9 | – |
| COc1ccc(C2(C3CCCCC3)NC(=N)N(C3CCCCC3)C2=O)cc1 (centres unmarked) [Example 447, 3,5-dicyclohexyl-2-imino-5-(4-methoxyphenyl)imidazolidin-4-one] | 0.494 | 0.0674 | 17.3 | – | – |
| COc1ccc(C2(C3CCCC3)NC(=N)N(C3CCOCC3)C2=O)cc1 (centres unmarked) [Example 335, 5-cyclopentyl-2-imino-5-(4-methoxy-phenyl)-3-(oxan-4-yl)imidazolidin-4-one] | 0.377 | 0.0907 | > 10 | – | – |
| COc1ccc(C2(c3ccc(OC)cc3)NC(=N)N(C3CCN(C(=O)c4ccccc4)CC3)C2=O)cc1 [Example 311, 3-(1-benzoylpiperidin-4-yl)-2-imino-5,5-bis(4-methoxyphenyl)imidazolidin-4-one] | – | 0.002 | ~6.8 | 81 | – |
| COc1ccc(C2(c3ccc(OC)cc3)NC(=N)N(C3CCN(C(C)=O)CC3)C2=O)cc1 [Example 310, 3-(1-acetylpiperidin-4-yl)-2-imino-5,5-bis(4-methoxyphenyl)imidazolidin-4-one] | – | 0.00584 | ~2.6 | 72 | – |
| COc1ccc(C2(c3ccc(OC)cc3)NC(=N)N(CC3CCN(C)CC3)C2=O)cc1 [Example 308, 2-imino-5,5-bis(4-methoxyphenyl)-3-[(1-methylpiperidin-4-yl)methyl]imidazolidin-4-one] | 0.677 | 0.0754 | > 10 | – | – |
| N=C1NC(c2cccc(-c3cccnc3)c2)(C2CC2)C(=O)N1C1CCOCC1 (centres unmarked) [Example 487, 5-cyclopropyl-2-imino-5-(3-(pyridin-3-yl)phenyl)-3-(tetrahydro-2H-pyran-4-yl)imidazolidin-4-one] | 0.248 | 0.512 | 8.65 | – | – |
| N=C1NC(c2cccc(-c3cncc(Cl)c3)c2)(C2CC2)C(=O)N1C1CCOCC1 (centres unmarked) [Example 489, 5-(3-(5-chloropyridin-3-yl)phenyl)-5-cyclopropyl-2-imino-3-(tetrahydro-2H-pyran-4-yl)imidazolidin-4-one] | 0.268 | 0.211 | 1.16 | – | – |
| COc1ccc(C2(c3ccc(OC)cc3)NC(=N)N(CC3CCN(C(=O)OC(C)(C)C)CC3)C2=O)cc1 [Example 313, tert-butyl 4-{[2-imino-4,4-bis(4-methoxyphenyl)-5-oxoimidazolidin-1-yl]methyl}piperidine-1-carboxylate] | – | 0.011 | ~2.2 | 27 | – |
| COc1ccc(C2(c3ccccn3)NC(=N)N(C3CCOCC3)C2=O)cc1 (centres unmarked) [Example 332, 2-imino-5-(4-methoxyphenyl)-3-(oxan-4-yl)-5-(pyridin-2-yl)-imidazolidin-4-one] | – | 0.216 | > 10 | 25 | – |
| COc1ccc(C2(C3CCCCC3)NC(=N)N(C3CCOCC3)C2=O)cc1 (centres unmarked) [Example 331, 5-cyclohexyl-2-imino-5-(4-methoxy-phenyl)-3-(oxan-4-yl)imidazolidin-4-one] | 0.354 | 0.0581 | ~10 | – | – |
| COc1ccc(C2(c3cccnc3)NC(=N)N(C3CCOCC3)C2=O)cc1 (centres unmarked) [Example 323, 2-imino-5-(4-methoxyphenyl)-3-(oxan-4-yl)-5-(pyridin-3-yl)imidazolidin-4-one] | – | 0.0743 | ~10 | 31 | – |
| COc1ccc(C2(c3cnn(C)c3)NC(=N)N(C3CCOCC3)C2=O)cc1 (centres unmarked) [Example 336, 2-imino-5-(4-methoxyphenyl)-5-(1-methyl-1H-pyrazol-4-yl)-3-(oxan-4-yl)-imidazolidin-4-one] | – | 0.395 | > 10 | 70 | – |
| N#Cc1cncc(-c2cccc(C3(C4CC4)NC(=N)N(C4CCOCC4)C3=O)c2)c1 (centres unmarked) [Example 488, 5-(3-(4-cyclopropyl-2-imino-5-oxo-1-(tetrahydro-2H-pyran-4-yl)imidazolidin-4-yl)phenyl)nicotinonitrile] | 0.362 | 0.443 | 2.98 | – | – |
